Results as given in article PMC9086869 (RSC Advances, 2018).

Molecular target: recombinant human CYP3A4 enzyme (Homo sapiens, UniProt P08684)
Assay: CYP3A4-Glo Screening System luminescent CYP3A4 inhibition assay
Conditions: for CYP3A4 inhibition activity (in words): compared with pterostilbene and ellipticine

Chain of recombinant human CYP3A4 enzyme (P08684 whole entry): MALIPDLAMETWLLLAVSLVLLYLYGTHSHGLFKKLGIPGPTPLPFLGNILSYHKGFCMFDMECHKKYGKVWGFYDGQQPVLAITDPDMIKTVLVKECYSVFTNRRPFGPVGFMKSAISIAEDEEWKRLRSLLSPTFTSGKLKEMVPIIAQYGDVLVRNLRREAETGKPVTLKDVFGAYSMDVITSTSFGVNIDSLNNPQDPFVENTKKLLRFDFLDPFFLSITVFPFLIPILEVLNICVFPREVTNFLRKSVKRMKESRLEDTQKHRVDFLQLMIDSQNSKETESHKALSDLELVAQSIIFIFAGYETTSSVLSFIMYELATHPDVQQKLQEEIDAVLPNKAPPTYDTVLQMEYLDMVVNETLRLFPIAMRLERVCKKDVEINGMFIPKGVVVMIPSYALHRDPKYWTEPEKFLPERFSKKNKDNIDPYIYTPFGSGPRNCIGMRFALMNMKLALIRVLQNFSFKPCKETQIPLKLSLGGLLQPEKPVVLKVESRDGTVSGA

With `O=C(/C=C/c1ccc(O)cc1)CC(=O)/C=C/c1ccc(O)cc1` [Bisdemethoxycurcumin] the IC50 was 14.8 ± 2.09 µM and the “CYP3A4 inhibition activity (in words)” value was “weaker”.

With `Cc1c2ccncc2c(C)c2c1[nH]c1ccccc12` [Ellipticine] the IC50 was 0.052 ± 0.003 µM.

`CC(C)=CCOc1c2ccoc2cc2oc(=O)ccc12` [Isoimperatorin] was tested, and the IC50 was 18.2 ± 1.72 µM and the “CYP3A4 inhibition activity (in words)” value was “weaker”.

With `COc1cc(/C=C/c2ccc(O)cc2)cc(OC)c1` [Pterostilbene] the IC50 was 1.12 ± 0.056 µM.
